Measured values as given in paper PMC3082472 (2010).

Test system: RNA probe (thiol / methylene blue E-AB aptamer) (RNA, aptamer) GGGACUUGGUUUAGGUAAUGAGUCCC
Assay: electrochemical aptamer-based sensor, square wave voltammetry
Details: 100 mM NaCl, 5 mM MgCl2; 20 mM Tris, pH 7.5; aptamer immobilised on gold

## NC[C@H]1O[C@H](O[C@H]2[C@H](O)[C@@H](O[C@H]3O[C@H](CO)[C@@H](O)[C@H](N)[C@H]3O)[C@H](N)C[C@@H]2N)[C@H](O)[C@@H](O)[C@@H]1O
  dissociation constants: 281 µM
